Measurements taken from ChEMBL document CHEMBL1157539, “Thousands of chemical starting points for antimalarial lead identification” (Nature, 2010).

Tested on: Plasmodium falciparum
Assay: GSK_TCMDC: Inhibition of Plasmodium falciparum 3D7 in whole erythrocytes, using parasite LDH activity as an index of growth.
Type: functional, organism-based
Conditions: not given

Row | SMILES | XC50 [µM]
1 | COc1cccc(/C=C/C(=O)NC2CCC(CN3CCC(c4c[nH]c5ccccc45)CC3)CC2)c1 (centres undefined) | 0.834

Same assay, conditions: Plasmodium falciparum, 3D7

Row | SMILES | XC50 [µM]
2 | COc1ccc(-c2ccc(NC(=O)c3ccc(Cl)cc3)cc2)cc1CN1CCN(C)CC1 | 0.823
3 | COc1cc(OC)cc(C(=O)Nc2nc(-c3ccccn3)cs2)c1 | 0.561
4 | CC(C)(C)c1nn(-c2ccccc2)c2[nH]c(=O)c(CNCc3ccc4c(c3)OCO4)cc12 | 1.05
5 | COc1ccccc1CNc1ccnc(NCCc2cccc(C(F)(F)F)c2)n1 | 0.925
6 | O=C1C(=Cc2c(O)ccc3ccccc23)SC(=NCc2ccccc2)N1Cc1ccccc1 | 0.155
7 | COc1cc(Cc2cnc(N)nc2N)cc(OCCCCc2nnn[nH]2)c1OC | 0.286
8 | Cc1cc2c(cc1C(F)(F)F)N(C(=O)Nc1ccc(OCCN(C)C)c(C(F)(F)F)c1)CC2 | 0.905
9 | Cc1cccc(C(=O)Nc2ccnc(N3CCC(N(C)Cc4ccccc4)CC3)c2)c1 | 0.962
10 | CCNc1cc(C)nc(Nc2ccc(NC(=O)Cc3ccc(OC)cc3)cc2)n1 | 1.38
11 | COc1ccc(CC2(c3ccc(F)cc3)N=C(N)N(CCCc3cccnc3)C2=O)cc1 (centres undefined) | 0.668
12 | Cc1nc(C)c(-c2ccc(C(=O)c3ccc(Cl)cc3)cc2)c(O)c1Br | 0.81
13 | O=C(Nc1cccc(C(F)(F)F)c1)c1cccc2nc(C(F)(F)F)[nH]c12 | 0.644
14 | COc1ccc(C(=O)CCC(=O)N(Cc2ccc(-c3ccc(CNCCc4ccccc4)cn3)cc2)C(C)CN(C)C)cc1F (centres undefined) | 0.747
15 | COc1ccc(CC(=O)NC(CCCN2CCC(c3ccccc3)CC2)c2ccc(Cl)c(Cl)c2)cc1OC (centres undefined) | 1.05
16 | Nc1cccc(CNCc2ccc(-c3cccc(-c4nc5cc(C(F)(F)F)ccc5[nH]4)c3)cc2)c1 | 0.172
17 | Cn1ccc(C(=O)Nc2ccc3c(c2)CN(Cc2ccc(N4CCCC4)o2)CCC3)n1 | 1.31
18 | COc1cc(Cc2cnc(N)nc2N)cc(OCCNC(=O)OCc2ccccc2)c1OC | 0.923
19 | OCCNc1nc(Nc2ccccc2)nc2ccccc12 | 0.128
20 | Cc1ccc(CNc2ccc3ncc(-c4cccc(C(=O)NCCN(C)C)c4)n3n2)c(C)c1 | 0.588
21 | O=C(Nc1cccc(C(F)(F)F)c1)NC1CCN(c2ccnc3cc(Cl)ccc23)C1 (centres undefined) | 0.12
22 | COc1ccc(CCON2C(=N)N=C(N)NC2(C)C)cc1OC | 0.00591
23 | CCCNCc1ccc(-c2ccc(CN(Cc3ccc4c(c3)OCO4)C(=O)[C@H]3CCCO3)cc2)nc1 | 0.811
24 | O=[N+]([O-])c1cccc(CNCC2CCN(CC3CCCCC3)CC2)c1 | 1.29
25 | C1=CN(Cc2ccccc2)C=CC1=C1C=Nc2ccccc21 | 0.756
26 | Cc1nc(-c2cccc(NC(C)C(=O)Nc3cc(C(F)(F)F)ccc3N3CCOCC3)c2)cs1 (centres undefined) | 0.241

Row | SMILES | XC50 [µM]
27 | COc1cc(-c2nc(-c3ccc(C(=O)c4ccc(F)cc4)cc3)c(-c3ccccc3)[nH]2)cc(OC)c1O | 0.659
28 | Cc1cc(Nc2cccc(Cl)c2)nc2ccc(NC(=O)c3ccc(=O)[nH]c3)cc12 | 0.995
29 | O=C1CC(C(=O)Nc2cccc(-c3cccc(-c4nc5ccccc5[nH]4)c3)c2)c2ccccc2N1 (centres undefined) | 0.98
30 | COc1ccccc1C1CCN(C2CCC(NC(=O)c3cc4ccccc4[nH]3)CC2)CC1 (centres undefined) | 1.21
31 | CCOc1cc(NCCSCc2nc[nH]c2C)nc2ccccc12 | 0.792
32 | CC(C)(C)c1ccc(OCCCON2C(=N)N=C(N)NC2(C)C)c(C(C)(C)C)c1 | 0.0032
33 | CC(C)CNc1nc(N)nc2ccc3c(ccn3CC(C)C)c12 | 0.649
34 | CCC(C)NC(=O)Nc1ccc(-c2cccc(-c3nc4ccccc4[nH]3)c2)cc1 (centres undefined) | 0.821
35 | COC(=O)c1cc(C(=O)CN(Cc2ccccc2)C(C)C)ccc1O | 0.183
36 | CCCN(Cc1ccc(OCC)cc1)Cc1cc(=O)c2cc(Cl)ccc2[nH]1 | 1.26
37 | Cc1c(Cc2ccc(F)cc2)c(Cl)nc2nc(N)nc(N)c12 | 0.861
38 | COc1ccc(CNC2Cc3ccccc3C2)cc1-c1cccc(S(=O)(=O)NCCN2CCCC2)c1 | 0.76
39 | CCn1cnc2c(Nc3cccc([N+](=O)[O-])c3)nc(N3CCC(N4CCCCC4)CC3)nc21 | 0.954
40 | O=C(Nc1cccc(CN2CCCN(Cc3ccc(O)cc3)CC2)c1)c1cc2ccccc2s1 | 0.362
41 | CCC(=O)c1cc(C(=O)NCCc2cccc(OC)c2)ccc1OC | 0.902
42 | O=C(Nc1cccc(CN2CCCN(CC3CC3)CC2)c1)c1ccc(-c2ccccc2)cc1 | 0.93
43 | Cc1c(-c2ccc(C(=O)NC3CC(C)(C)NC(C)(C)C3)cc2)[nH]c2cc(Cl)c(Cl)cc12 | 0.751
44 | O=C(NCCCCCN1CCC(c2c[nH]c3ccccc23)CC1)c1ccc(-c2cccnc2)cc1 | 1.03
45 | CCOc1ccc(-c2nonc2NC(=O)c2ccccc2)cc1OCC | 0.257
46 | COc1cccc(Nc2c(C(N)=O)cnc3ccc(-c4ccc([S+](C)[O-])cc4)cc23)c1 (centres undefined) | 0.186
47 | O=C(c1cccc(-c2cccc(-c3nc4cc(F)ccc4[nH]3)c2)c1)N1CCCCC1CN1CCC(O)C1 (centres undefined) | 0.882
48 | Cc1ccoc1C(=O)Nc1cccc(-c2cccc(-c3nc4ccccc4[nH]3)c2)c1 | 1.22
49 | CN(C)CCOc1cc(NC(=O)/C=C/c2cccc3ccccc23)ccc1I | 1.26
50 | O=C(Nc1cccc(-c2ccc(-c3nc4cc(C(F)(F)F)ccc4[nH]3)cc2)c1)c1cccnc1 | 0.572
51 | CN1CCC(N2CCN(c3ccc4c(=O)nc(CCc5cccc(F)c5F)n(CC(=O)N(C)Cc5ccc(-c6ccc(C(F)(F)F)cc6)cc5)c4n3)CC2)CC1 | 0.717

Row | SMILES | XC50 [µM]
52 | O=C(Nc1ccc(OC2CCN(Cc3ccccc3)CC2)c(Cl)c1)c1ccc(F)cc1 | 0.796
53 | Cc1cc(NC(=O)Nc2cccc(C#N)c2)c2ccccc2n1 | 0.581
54 | Cn1cncc1C(=O)Nc1cccc(-c2ccc(-c3nc4cc(F)ccc4[nH]3)s2)c1 | 0.872
55 | Cc1nc(SCC(=O)N2CCCC2=O)c2c(C)c(C)sc2n1 | 0.17
56 | CCCCc1ccc2ncc(C(=O)OCC)c(O)c2c1 | 0.632
57 | CC(C)(C)c1cc(C(=O)N2CCC(c3ccccn3)CC2)n(Cc2ccccc2)n1 | 0.955
58 | CCOc1ccc(Br)cc1/C=C/C(=O)Nc1ccc2c(c1)C1CCC2N1C (centres undefined) | 1.05
59 | CN(C)CCNCc1cccc(-c2ccc3c(Nc4ccc(Oc5ccccn5)cc4)ccnc3c2)c1 | 0.233
60 | CC(C)(CNC(=O)C1CCN(CCOc2ccc(F)c(F)c2)CC1)c1nc(-c2ccc(Cl)c(O)c2)c(-c2ccncc2)[nH]1 | 0.316
61 | CN1CCN(CCCNCc2cccc(Nc3nccc(Nc4ccc(Oc5ccccc5)cc4)n3)c2)CC1 | 0.765
62 | COc1cc2c(Nc3cccc(NC(=O)c4ccccc4)c3)ncnc2cc1OCCCN1CCOCC1 | 0.155
63 | CCCCC(=O)NC(c1cccs1)c1cc(Cl)c2cccnc2c1O (centres undefined) | 0.38
64 | CC(C)CNCc1cccc(-c2cccc(CNCCCN3CCN(C)CC3)c2)c1 | 1.18
65 | CC(O)CNc1nc2ccccc2n1CC(=O)Nc1cccc(C(=O)Nc2cccc(C(F)(F)F)c2)c1 (centres undefined) | 0.103
66 | CN(C)c1cc(NC(=O)Nc2ccc(SC(F)(F)F)cc2)c2ccccc2n1 | 0.14
67 | CC(=O)N(C)/N=C/[C@H](CCc1ccccc1)NC(=O)[C@H](CC(C)C)NC(=O)c1cccc(OCCN2CCOCC2)c1 | 0.332
68 | CC(C)(C)c1ccc2oc(=O)n(C3CCN(C(=O)c4ccc([N+](=O)[O-])o4)CC3)c2c1 | 0.816
69 | COc1c(C2CCN(CCCCNC(=O)c3ccc(-c4ccc(C(=O)C(F)(F)F)cc4)cc3)CC2)ccc2c1CCCC2 | 1.1
70 | O=S(=O)(NCCN1CCCC1)c1ccc(-c2ccccc2CNC2Cc3ccccc3C2)cc1 | 0.847
71 | O=S(=O)(NC1=NCCC1)c1cccc(Nc2nc(C(F)(F)F)nc3ccccc23)c1 | 0.945
72 | Cc1cccc2nc(-c3cccc(-c4cccc(NC(=O)c5cccnc5Cl)c4)c3)[nH]c12 | 0.707
73 | CCc1ccc(NC(=O)c2ccc(CN3CCCN(Cc4cccc(O)c4)CC3)cc2)cc1 | 0.673
74 | COc1ccc(NC(=O)c2ccc(-c3ccc(-c4cccnc4)cc3)c(C)c2)cc1OCCN(C)C | 0.201
75 | Cc1ccc(C(C)C)c(Oc2ccc3nc(N)nc(N)c3c2)c1 | 0.0102
76 | CCOc1cc2ncnc(Nc3ccc(OCc4c(Cl)cccc4Cl)c(OC)c3)c2cc1OCC | 1.05

Row | SMILES | XC50 [µM]
77 | O=C(Nc1ccc(C2=NC3CCCCC3N2)cc1)Nc1ccc(C2=NC3CCCCC3N2)cc1 (centres undefined) | 0.179
78 | Cc1[nH]c(C)c(-c2ccc(-c3ccc(C(F)(F)F)cc3C(F)(F)F)nc2)c(=O)c1Br | 0.187
79 | COC(=O)Nc1ccc(-c2ccc(C(=O)NC3CCN(C[C@H](O)c4ccnc5ccc(OC)cc45)CC3)cc2)c(C)c1 | 0.685
80 | COc1cccc(/C=C/C(=O)NC2CCC(CN3CCC(c4c[nH]c5ccccc45)CC3)CC2)c1 (centres undefined) | 0.765
81 | COc1ccc2nc(C)cc(NC3Cc4ccccc4C3)c2c1 | 0.839
82 | Cc1c(CNCCCNc2nc3cscc3[nH]2)sc(C(F)F)c1Br | 0.936
83 | CN(C)CCC1CCCc2ccc(NC(=O)Nc3cccc(Cl)c3Cl)cc21 (centres undefined) | 0.958
84 | COc1ccc(CNC(=O)c2cnc3c(O)cccc3c2Nc2cccc(NC(=O)c3ccc(F)cc3)c2)cc1 | 0.996
85 | COc1cccc(CN2CCC(CCOC(c3ccccc3)c3ccc(Cl)cc3)CC2)c1O (centres undefined) | 0.713
86 | CC(CN1CCN(C)CC1)C(=O)Nc1ccc(-c2csc(-c3nc4ccccc4[nH]3)c2)cc1 (centres undefined) | 0.837
87 | Cc1cc(C(=O)NC2CCN(Cc3ccccc3)CC2)ccc1-c1nc2ccc(C(F)(F)F)cc2[nH]1 | 0.891
88 | COc1cccc(-c2cc(C(=O)Nc3cc(Oc4ccc(O)cc4)cc([N+](=O)[O-])c3)on2)c1 | 1.05
89 | COc1ccc(CCNCCCCCCNCCc2ccc(Cl)c(Cl)c2)cc1OC | 0.926
90 | COc1ccc(C(=O)N2CCC3(CC2)C(=O)N(CC(=O)NCC2CCCCC2)CN3c2ccccc2)c(OC)c1 | 0.119
91 | Cc1ccnc(-n2c(C)cc(C=C3SC(=Nc4ccccc4)N(Cc4ccco4)C3=O)c2C)c1 | 0.237
92 | CC1(C)NC(N)=NC(=N)N1OCc1ccc(-c2ccccc2)cc1 | 0.0032
93 | Cc1ccccc1C1CCN(C2CCC(NC(=O)c3cc4cc(Cl)ccc4o3)CC2)CC1 (centres undefined) | 1.2
94 | CN(C)C(=O)c1ccc(CN(Cc2ccc(OC(C)(C)C)cc2)Cc2ccc3c(c2)OCCO3)cc1 | 0.829
95 | Cc1cc(OCCCN2CCC(NS(=O)(=O)c3ccc(Cl)c(Cl)c3)CC2)c2ccccc2n1 | 0.897
96 | Cc1ccc(Cn2ncc(NC3CCNCC3)c(Cl)c2=O)cc1NC(=O)Nc1ccc(-c2ccccc2)cc1 | 0.657
97 | Cc1cc(-c2cccc(CNCc3ccccc3)c2)ccc1S(=O)(=O)NCCN1CCCC1 | 0.732
98 | Cc1onc(-c2c(Cl)cccc2Cl)c1C(=O)NC1=NC(C)(C)ON1c1ccccc1 | 1.07
99 | CCCCc1ccc(C(=O)Nc2ccc3nc(N4CCN(CC)CC4)cc(C)c3c2)cc1 | 0.905
